Reference: article PMC6198970, “Safety, efficacy, and dose response of the maturation inhibitor GSK3532795 (formerly known as BMS-955176) plus tenofovir/emtricitabine once daily in treatment-naive HIV-1-infected adults: Week 24 primary analysis from a randomized Phase IIb trial” (PLoS ONE, 2018)

Key:
Type in all cases: in vivo, HIV-1-infected adults
HIV-1 [1] = assay: Phase IIb study 205891: plasma HIV-1 RNA response at Week 24 (FDA snapshot, observed); settings: Week 24, mITT; GSK3532795: range across 60, 120, 180 mg arms; EFV 600 mg; each + TDF/FTC
Method: 205891 was a Phase IIb, randomized, active-controlled, double-blind trial performed at 58 sites in 12 countries across South America, North America, South Africa, and Europe. Participants were randomized 1:1:1:1 to one of four treatment arms; GSK3532795 at doses of 60 mg, 120 mg or 180 mg once daily (QD), and one reference arm with EFV at a dose of 600 mg QD, each given in combination with TDF/FTC 300/200 mg QD.
Participants attended study visits at screening, on Day 1, and once every 4 weeks from Week 4 to Week 24 (telephonic visits were conducted at Week 20). Participants were expected to continue treatment, then, through Week 96, with visit intervals every 8–12 weeks. A post-dose safety follow-up visit was also conducted 12 weeks after treatment discontinuation. Plasma HIV-1 RNA levels were quantified by the Abbott RealTime HIV-1 assay.
The FDA-defined snapshot algorithm was used for primary endpoint efficacy assessment, using the last plasma HIV-1 RNA value in the pre-defined Week 24 visit window (± 6 weeks) to determine response. The modified intent-to-treat (mITT) population consisted of participants who received at least one dose of GSK3532795 or EFV. […]

CD4+ T-cell count = assay: Change from baseline in CD4+ T-cell count; settings: EFV arm; Week 24
Text: The primary endpoint was determination of the proportion of participants with plasma HIV-1 RNA <40 copies/mL at Week 24 after treatment with GSK3532795 or efavirenz (EFV). Secondary endpoints included mean changes from baseline in CD4+ T-cell count and mean changes in the percentage of CD4+ T-cell count over time. Secondary safety endpoints included frequency of adverse events (AEs), serious AEs (SAEs), and AEs leading to discontinuation through Week 24. Further secondary endpoints included emergence of drug resistance. Exploratory endpoints included assessment of the impact of Gag polymorphisms on the efficacy of GSK3532795. […] In addition, though Gag A364 is essentially invariant across genotypes, it was included in the primary endpoint analysis since emergent resistance to GSK3532795 (both in vitro and in Phase IIa studies) mapped, in part, to the A364V change. Thus, our analysis at the Week 24 primary endpoint was limited to these four positions. Pharmacokinetic (PK) analyses were performed to evaluate treatment exposure and assess the dose proportionality of GSK3532795 when co-administered with tenofovir disoproxil fumarate (TDF)/emtricitabine (FTC).

HIV-1 [2] = assay: Protocol-defined virologic failure and drug resistance testing (GenoSure MG, PhenoSense); settings: EFV arm; through Week 24
Text: PDVF was defined as either: (1) confirmed HIV-1 RNA ≥40 copies/mL at any time after prior confirmed suppression to <40 copies/mL; or (2) a confirmed >1 log10 copies/mL above the nadir level. Genotypic information required for screening was generated using the GenoSure® MG assay; genotypic information and phenotypic observations during the treatment period were generated using the PhenoSense® combination resistance test.

[3] = Adverse events through Week 24
Method: (§1) Physical examinations, measurement of vital signs, and clinical laboratory evaluations were performed at Weeks 4, 8, 12, 16 and 24, and participants were closely monitored for AEs and SAEs throughout. AEs were classified according to MedDRA version 19.0. The severity and relationship to study drug was assessed by the local investigator.

[4] = Clinical laboratory evaluations
Method: as §1

[5] = GSK3532795: range across 60, 120, 180 mg arms, EFV 600 mg
[6] = GSK3532795 arms pooled, EFV 600 mg, abstract

With O=C1Nc2ccc(Cl)cc2[C@@](C#CC2CC2)(C(F)(F)F)O1 [EFV, efavirenz, reference compound] the “Participants achieving HIV-1 RNA <40 copies/mL” value (HIV-1 [1]) was 77%, the “Mean change from baseline in CD4+ T-cell count (SD)” value (CD4+ T-cell count) was 134.7 (SD 151.70) cells/μL and the “Rate of protocol-defined virologic failure (PDVF)” value (HIV-1 [2]) was 2% (1/53). For the same compound, the “Mean time to onset of first diarrhea event” value ([3]; EFV arm) was 73.0 days, the “Mean duration of first diarrhea event” value ([3]; EFV arm (shortest)) was 35.8 days and the “Incidence of dizziness relative to GSK3532795” value ([3]; EFV arm vs GSK3532795 arms) was about 10 fold. For the same compound, the “SAE considered related to study drug” value ([3]; GSK3532795 120 mg (no action taken), EFV (led to discontinuation)) was “increased hepatic enzyme”, the “Grade 1–4-related abdominal pain” value [3, 5] was 0% and the “Grade 1–4-related diarrhea” value [3, 5] was 4%. For the same compound, the “Adverse events leading to discontinuation” value [3, 6] was 17%, the Serious adverse events [3, 6] was 9% and the “Frequency of Grade 1–4-related AEs” value ([3]; GSK3532795 arms pooled, EFV 600 mg, through Week 24) was 60%. For the same compound, the “Mean increase in total cholesterol” value ([4]; EFV arm, baseline to Week 24) was 17.6 mg/dL, the “Mean increase in triglyceride levels” value ([4]; EFV arm, baseline to Week 24) was 41.1 mg/dL and the “Hepatic event attributed to EFV” value ([4]; one participant, discontinued) was “several Grade 4 liver chemistry elevations”.
